Data published in PubChem BioAssay (NCI).
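Interpolation was linear, between the two tested concentrations surrounding the appropriate level; five concentrations were tested over 48 hours in 96-well plates. GI50 = concentration required for 50% inhibition of growth. Definition used: TGI = concentration required for complete inhibition of growth.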

Legend:
Assay in all cases: growth of human tumour cells (NCI), 48 h
UACC-62 melanoma = test system: UACC-62 melanoma
MALME-3M melanoma = test system: MALME-3M melanoma
MDA-MB-231 breast = test system: MDA-MB-231 breast
RPMI-8226 leukemia = test system: RPMI-8226 leukemia
MDA-MB-435 = test system: MDA-MB-435
IGROV1 ovarian = test system: IGROV1 ovarian
DU-145 prostate = test system: DU-145 prostate
CAKI-1 renal = test system: CAKI-1 renal
COLO 205 colon = test system: COLO 205 colon
HCT-15 colon = test system: HCT-15 colon
PC-3 prostate = test system: PC-3 prostate
NCI-H23 lung = test system: NCI-H23 lung
SK-MEL-2 melanoma = test system: SK-MEL-2 melanoma
UACC-257 melanoma = test system: UACC-257 melanoma
HL-60(TB) leukemia = test system: HL-60(TB) leukemia
RXF 393 renal = test system: RXF 393 renal
HCT-116 colon = test system: HCT-116 colon
HCC-2998 colon = test system: HCC-2998 colon
UO-31 renal = test system: UO-31 renal
SW-620 colon = test system: SW-620 colon
LOX IMVI melanoma = test system: LOX IMVI melanoma
SN12C renal = test system: SN12C renal
SF-295 CNS = test system: SF-295 CNS
SNB-75 CNS = test system: SNB-75 CNS
SF-268 CNS = test system: SF-268 CNS
OVCAR-3 ovarian = test system: OVCAR-3 ovarian
NCI-H460 lung = test system: NCI-H460 lung
A498 renal = test system: A498 renal
TK-10 renal = test system: TK-10 renal
SK-MEL-28 melanoma = test system: SK-MEL-28 melanoma
BT-549 breast = test system: BT-549 breast
KM12 colon = test system: KM12 colon
NCI-H522 lung = test system: NCI-H522 lung
U251 CNS = test system: U251 CNS
EKVX NSCLC = test system: EKVX NSCLC
ACHN renal = test system: ACHN renal
OVCAR-8 ovarian = test system: OVCAR-8 ovarian
SK-MEL-5 melanoma = test system: SK-MEL-5 melanoma
MOLT-4 leukemia = test system: MOLT-4 leukemia
OVCAR-4 ovarian = test system: OVCAR-4 ovarian
NCI-H226 lung = test system: NCI-H226 lung
T-47D breast = test system: T-47D breast
OVCAR-5 ovarian = test system: OVCAR-5 ovarian
SK-OV-3 ovarian = test system: SK-OV-3 ovarian
M14 melanoma = test system: M14 melanoma
786-0 renal = test system: 786-0 renal
HT29 colon = test system: HT29 colon
SR leukemia = test system: SR leukemia
HS 578T breast = test system: HS 578T breast
NCI/ADR-RES ovarian = test system: NCI/ADR-RES ovarian
CCRF-CEM leukemia = test system: CCRF-CEM leukemia
MCF7 breast = test system: MCF7 breast
SNB-19 CNS = test system: SNB-19 CNS
K-562 leukemia = test system: K-562 leukemia
A549 NSCLC = test system: A549 NSCLC
SF-539 CNS = test system: SF-539 CNS
HOP-92 NSCLC = test system: HOP-92 NSCLC
HOP-62 NSCLC = test system: HOP-62 NSCLC

## COc1cc(C2CC(c3cccc(Nc4ccnc5cc(Cl)ccc45)c3)=NN2C=O)cc(OC)c1OC (centres undefined)
UACC-62 melanoma
  GI50: 0.621 µM
  TGI: 2.66 µM
MALME-3M melanoma
  GI50: 0.825 µM
  TGI: 5.14 µM
MDA-MB-231 breast
  GI50: 1.36 µM
  TGI: 13.7 µM
RPMI-8226 leukemia
  GI50: 3.72 µM
  TGI: > 23 µM
MDA-MB-435
  GI50: 0.157 µM
  TGI: 0.466 µM
IGROV1 ovarian
  GI50: 2.12 µM
  TGI: > 43.2 µM
DU-145 prostate
  GI50: 1.97 µM
  TGI: 11.8 µM
CAKI-1 renal
  GI50: 0.563 µM
  TGI: 2.47 µM
COLO 205 colon
  GI50: 0.635 µM
  TGI: 7.15 µM
HCT-15 colon
  GI50: 0.626 µM
  TGI: > 100 µM
PC-3 prostate
  GI50: 0.979 µM
  TGI: 19.2 µM
NCI-H23 lung
  GI50: 1.4 µM
  TGI: 21.5 µM
SK-MEL-2 melanoma
  GI50: 0.504 µM
  TGI: 3.08 µM
UACC-257 melanoma
  GI50: 0.743 µM
  TGI: 5.6 µM
HL-60(TB) leukemia
  GI50: 0.243 µM
  TGI: 0.53 µM
RXF 393 renal
  GI50: 1.38 µM
  TGI: 5.29 µM
HCT-116 colon
  GI50: 0.381 µM
  TGI: 1.64 µM
HCC-2998 colon
  GI50: 2.31 µM
  TGI: 24.4 µM
UO-31 renal
  GI50: 1.32 µM
  TGI: 4.69 µM
SW-620 colon
  GI50: 0.401 µM
LOX IMVI melanoma
  GI50: 0.791 µM
  TGI: 7.15 µM
SN12C renal
  GI50: 1.14 µM
  TGI: 27.2 µM
SF-295 CNS
  GI50: 0.357 µM
  TGI: 3.61 µM
SNB-75 CNS
  GI50: 0.31 µM
  TGI: 2.3 µM
SF-268 CNS
  GI50: 1.49 µM
  TGI: > 34.8 µM
OVCAR-3 ovarian
  GI50: 0.408 µM
  TGI: 1.35 µM
NCI-H460 lung
  GI50: 0.436 µM
  TGI: > 40.4 µM
A498 renal
  GI50: 0.273 µM
  TGI: 1.63 µM
TK-10 renal
  GI50: 1.12 µM
  TGI: 4.45 µM
SK-MEL-28 melanoma
  GI50: 0.961 µM
  TGI: 4.26 µM
BT-549 breast
  GI50: 0.419 µM
  TGI: 1.7 µM
KM12 colon
  GI50: 0.502 µM
  TGI: > 23.4 µM
NCI-H522 lung
  GI50: 0.502 µM
  TGI: 6.68 µM
U251 CNS
  GI50: 0.393 µM
  TGI: 3.46 µM
EKVX NSCLC
  GI50: 1.3 µM
  TGI: 26.1 µM
ACHN renal
  GI50: 1.27 µM
  TGI: 5.32 µM
OVCAR-8 ovarian
  GI50: 1.64 µM
  TGI: > 28.3 µM
SK-MEL-5 melanoma
  GI50: 0.454 µM
  TGI: 2.34 µM
MOLT-4 leukemia
  GI50: 0.595 µM
  TGI: 4.44 µM
OVCAR-4 ovarian
  GI50: 1.13 µM
  TGI: 6.21 µM
NCI-H226 lung
  GI50: 1.98 µM
  TGI: 6.15 µM
T-47D breast
  GI50: 0.805 µM
  TGI: 5.17 µM
OVCAR-5 ovarian
  GI50: 3.5 µM
  TGI: 20.3 µM
SK-OV-3 ovarian
  GI50: 1.35 µM
  TGI: 4.14 µM
M14 melanoma
  GI50: 0.319 µM
  TGI: 2 µM
786-0 renal
  GI50: 1.12 µM
  TGI: 5.16 µM
HT29 colon
  GI50: 0.364 µM
  TGI: 1.23 µM
SR leukemia
  GI50: 0.318 µM
  TGI: 1.7 µM
HS 578T breast
  GI50: 0.545 µM
  TGI: 9.36 µM
NCI/ADR-RES ovarian
  GI50: 1.3 µM
  TGI: 6.3 µM
CCRF-CEM leukemia
  GI50: 0.462 µM
MCF7 breast
  GI50: 0.354 µM
  TGI: 10.2 µM
SNB-19 CNS
  GI50: 2.52 µM
  TGI: > 100 µM
K-562 leukemia
  GI50: 0.435 µM
  TGI: 12.6 µM
A549 NSCLC
  GI50: 0.571 µM
  TGI: 10 µM
SF-539 CNS
  GI50: 1.02 µM
  TGI: 3.89 µM
HOP-92 NSCLC
  GI50: 2.75 µM
  TGI: 85.4 µM
HOP-62 NSCLC
  GI50: 0.846 µM
  TGI: 8.31 µM
